Assay results from patent US11279708B2, “Amidino- and amino-rocaglates as novel translation inhibitors and anticancer agents” (priority 2019, dated 2022).

Target: T1, eIF4A2:poly r(AG)8 RNA (Homo sapiens, UniProt Q14240)
T1 construct: His6 (N); made in house; host or cells: E. coli BL21 (DE3)
Assay: fluorescence polarization (FP) assay, eIF4A2 binding to FAM-labelled RNA
Settings: 10 μM CR-1-31-B
Description: Rocaglates similarly enhance RNA binding of eIF4A1 and eIF4A2. In order to rapidly evaluate the ability of rocaglates to stimulate binding of eIF4A to RNA, a fluorescence polarization (FP) assay using a FAM (fluorescein amidite)-labelled RNA probe (FIG. 18A) was used. […] Due to the high degree of shared amino acid identity between the two paralogs, their apparent similarity with respect to RNA binding activity and response to CR-1-31-B (23), and the fact that eIF4A1 is essential but eIF4A2 is not, eIF4A1 was used in the majority of our subsequent experiments.
Fluorescence Polarization (FP) Assays. Unless otherwise specified, eIF4A (500 nM) was incubated with 10 nM FAM-labelled RNA for 30 min in FP buffer (14.4 mM HEPES-NaOH (pH 8), 108 mM NaCl, 1 mM MgCl2, 14.4% glycerol, 0.1% DMSO, 2 mM DTT, 1 mM AMPPNP) at room temperature in black low volume 384 well plates (Corning 3820). FP readings were performed on a Pherastar FS microplate reader (BMG Labtech).
FIGS. 17A-17F. Assessment of eIF4A1 and eIF4A2 RNA binding specificity. 17A. Chemical structure of the most commonly used rocaglates in biological studies 17B. Coomassie blue staining of SDS-PAGE showing eIF4A1 and eIF4A2 preparations used herein. […]

T1 sequence (Q14240 whole entry, species assumed): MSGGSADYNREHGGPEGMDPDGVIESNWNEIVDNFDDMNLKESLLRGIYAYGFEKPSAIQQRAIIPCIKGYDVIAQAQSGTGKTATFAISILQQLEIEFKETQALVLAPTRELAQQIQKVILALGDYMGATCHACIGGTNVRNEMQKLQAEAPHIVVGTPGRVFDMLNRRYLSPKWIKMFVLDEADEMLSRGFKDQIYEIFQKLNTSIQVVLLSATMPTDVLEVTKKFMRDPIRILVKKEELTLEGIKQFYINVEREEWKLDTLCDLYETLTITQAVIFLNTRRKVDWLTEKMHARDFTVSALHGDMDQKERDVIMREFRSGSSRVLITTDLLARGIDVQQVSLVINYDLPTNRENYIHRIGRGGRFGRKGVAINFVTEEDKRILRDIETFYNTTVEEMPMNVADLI

Structure (SMILES): CONC(=O)[C@H]1[C@@H](O)[C@@]2(O)c3c(OC)cc(OC)cc3O[C@@]2(c2ccc(OC)cc2)[C@@H]1c1ccccc1 [CR-1-31-B]
- stimulation of eIF4A2:RNA binding (in words): equally stimulates binding of both eIF4A1 and eIF4A2
